Reference: article doi:10.1101/2024.11.09.622828v1 (biorxiv, 2024)

Legend:
[1] = molecular target: T1, Porcine pancreatic α-amylase (PPA) (Sus scrofa, UniProt P00690); test: DNS reducing sugar assay, […] nm; assay type: biochemical
T1 sequence (P00690 16-511): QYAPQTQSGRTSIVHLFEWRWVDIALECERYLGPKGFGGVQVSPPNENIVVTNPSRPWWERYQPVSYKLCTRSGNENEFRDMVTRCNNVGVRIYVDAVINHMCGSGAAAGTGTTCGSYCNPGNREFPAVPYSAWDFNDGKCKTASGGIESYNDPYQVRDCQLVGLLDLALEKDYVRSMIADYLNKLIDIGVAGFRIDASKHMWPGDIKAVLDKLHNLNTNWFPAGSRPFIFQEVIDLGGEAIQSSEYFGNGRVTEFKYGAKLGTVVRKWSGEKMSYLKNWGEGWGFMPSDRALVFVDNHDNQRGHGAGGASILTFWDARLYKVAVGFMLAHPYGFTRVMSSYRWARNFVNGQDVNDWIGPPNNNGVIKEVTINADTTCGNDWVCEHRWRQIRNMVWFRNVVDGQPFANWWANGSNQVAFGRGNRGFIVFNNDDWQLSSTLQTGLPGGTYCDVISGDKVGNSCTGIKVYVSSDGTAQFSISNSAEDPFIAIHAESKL

[2] = molecular target: LDH-A (lactate dehydrogenase-A); test: NADH oxidation at […] nm, crude goat liver enzyme; assay type: biochemical, Capra hircus; conditions: 1.8 mM pyruvate, 5 mM NADH, 50 mM Tris pH 7.6

IC50 [1] [µM]	IC50 [2] [µM]	Structure (SMILES)
22		O=C1C[C@@H](c2ccc(O)c(O)c2)Oc2cc(O)cc(O)c21 [E, Eriodictyol]
24		O=c1c(O)c(-c2cc(O)c(O)c(O)c2)oc2cc(O)cc(O)c12 [M, Myricetin]
	4.16	O=c1c(O)c(-c2ccc(O)c(O)c2)oc2cc(O)cc(O)c12 [Q, Quercetin]
